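How tested: cells in 96-well plates exposed to compound for 48 hours at five concentrations. Abbreviation: GI50, concentration required for 50% inhibition of growth. TGI marks complete inhibition of growth.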
Experiments:
Assay in all cases: inhibition of tumour cell growth, NCI panel, 48 h
SK-MEL-5 melanoma = tested on: SK-MEL-5 melanoma
KM12 colon = tested on: KM12 colon
HCT-15 colon = tested on: HCT-15 colon
A498 renal = tested on: A498 renal
SNB-75 CNS = tested on: SNB-75 CNS
OVCAR-4 ovarian = tested on: OVCAR-4 ovarian
SR leukemia = tested on: SR leukemia
CCRF-CEM leukemia = tested on: CCRF-CEM leukemia
SK-OV-3 ovarian = tested on: SK-OV-3 ovarian
HOP-62 NSCLC = tested on: HOP-62 NSCLC

| Structure (SMILES) | TGI (SK-MEL-5 melanoma) [µM] | TGI (KM12 colon) [µM] | TGI (HCT-15 colon) [µM] | TGI (A498 renal) [µM] | TGI (SNB-75 CNS) [µM] | TGI (OVCAR-4 ovarian) [µM] | TGI (SR leukemia) [µM] | TGI (CCRF-CEM leukemia) [µM] | TGI (SK-OV-3 ovarian) [µM] | TGI (HOP-62 NSCLC) [µM] | GI50 (A498 renal) [µM] | GI50 (OVCAR-4 ovarian) [µM] |
| --- | --- | --- | --- | --- | --- | --- | --- | --- | --- | --- | --- | --- |
| O=[N+]([O-])c1ccc(-c2csc(=[N+]3CCCCC3)s2)cc1 | 17.8 | > 100 | > 100 | 63.6 | > 26.5 | 81.4 | > 83.3 | > 100 | > 100 | 11.6 | – | – |
| CC(C)=CCC[C@@H](C)C1=C(Nc2ccccc2F)C(O)=C(C)C(=O)C1=O | 14.8 | 19.4 | > 70.6 | > 43.9 | > 100 | > 100 | > 100 | 3.9 | 73.3 | > 72.1 | – | – |
| NC(=O)NN=C1Cc2ccccc2C1 | > 100 | > 100 | > 100 | > 100 | > 100 | > 100 | > 100 | > 100 | > 100 | > 100 | – | – |
| CCc1nc2c(c(N(C)C)c1C(=O)OC)CCc1ccccc1-2 | 32.9 | > 100 | > 100 | 75.3 | > 100 | > 100 | 32.9 | 9.43 | 51.4 | 63.5 | – | – |
| CC1(C)C=C(/C=C2/N(S(=O)(=O)C(F)(F)F)C(/C=C3/N(S(=O)(=O)C(F)(F)F)C(C)(C#N)CC3(C)C)=CC2(C)C)N=C1/C=C1/CC(C)(C)C(=O)N1 (configuration not stated) | 71.6 | > 100 | 73.6 | > 100 | > 100 | > 100 | > 100 | 52.8 | > 100 | > 100 | – | – |
| Cc1cc(-c2cc(C(C)(C)C)c(O)c(C(C)(C)C)c2)c(C)cc1-c1cc(C(C)(C)C)c(O)c(C(C)(C)C)c1 | > 100 | > 100 | > 100 | 92.7 | > 100 | > 100 | > 100 | > 100 | > 100 | > 100 | – | – |
| NC(=O)C1CCN(Cc2c(Cl)c(Cl)c(CN3CCC(C(N)=O)CC3)c(Cl)c2Cl)CC1 | > 100 | > 100 | > 100 | 90.6 | 63.6 | > 100 | > 100 | > 100 | 46.5 | 39.7 | – | – |
| COC1(CC[C@H](C)COC2OC(CO)C(O)C(O)C2O)O[C@H]2C[C@H]3[C@@H]4CC=C5C[C@@H](OC6OC(CO)C(OC7OC(C)C(O)C(O)C7O)C(O)C6OC6OC(C)C(O)C(O)C6O)CC[C@]5(C)[C@H]4CC[C@]3(C)[C@H]2[C@@H]1C (some centres not stated) | > 28.6 | 6.65 | 7.47 | 64.5 | 3.8 | 18 | > 100 | > 37.1 | 7.99 | 4.09 | – | – |
| CC1=NN2C(=N)/C(=C/c3ccc(F)cc3)C(=O)N=C2S1 | > 100 | > 100 | > 100 | > 100 | > 100 | > 100 | > 100 | > 100 | > 100 | > 100 | – | – |
| CS(=O)(=O)Nc1ccc2ccccc2c1 | > 100 | > 100 | > 100 | > 100 | > 100 | > 100 | > 100 | > 100 | > 100 | > 100 | – | – |
| CCOC(=O)c1csc(NC(=O)CCN2CCN(C)CC2)n1 | > 100 | > 100 | > 100 | > 100 | > 100 | > 100 | > 100 | > 100 | > 100 | > 100 | – | – |
| CC1(C)OCC(C2OC(C)(C)OC2[C@H]2O[C@@]3(O)[C@H]4[C@H](C=CC[C@@H]42)[C@@H](OCc2ccccc2)[C@H](OCc2ccccc2)[C@H]3OCc2ccccc2)O1 (some centres not stated) | > 100 | > 100 | > 100 | > 100 | > 100 | > 100 | 31.4 | > 100 | > 100 | > 100 | – | – |
| CC1(C)N=C(N)N=C(N)N1c1cccc(Cl)c1 | > 100 | > 100 | > 100 | > 100 | > 100 | > 100 | > 100 | > 100 | > 100 | > 100 | – | – |
| c1ccc2c(c1)cc1ccc3cccc4ccc2c1c34 | > 100 | > 100 | > 100 | > 100 | > 100 | > 100 | > 100 | > 100 | > 100 | > 100 | > 100 | > 100 |
| COc1ccc2c(c1OC)C(=O)N1C2=Cc2c(cc3c(c2OC)OCO3)CC1N(C)C (configuration not stated) | > 100 | > 100 | > 100 | > 100 | > 100 | > 100 | > 100 | > 100 | > 100 | > 100 | – | – |
| CC(C)(C)/C(O)=C\c1nc2cc(F)c(F)cc2[nH]c1=O | > 100 | > 100 | > 100 | > 100 | > 100 | > 100 | > 100 | > 100 | > 100 | > 100 | – | – |
